Literature values in patent EP4810022A1, “MICROPARTICLES COMPRISING TIRZEPATIDE OR PHARMACEUTICALLY ACCEPTABLE SALT THEREOF, AND MANUFACTURING METHOD THEREFOR” (Inventage Lab Inc., priority 2024, dated 2025).

What was measured:
[1] = when taken for one year
[2] = reported

## CCCCCCCCCCC[C@@H](C[C@@H]1OC(=O)[C@H]1CCCCCC)OC(=O)[C@H](CC(C)C)NC=O [orlistat]
[1]
  body weight loss: about 4 kg

## Cc1c(C(=O)NN2CCCCC2)nn(-c2ccc(Cl)cc2Cl)c1-c1ccc(Cl)cc1 [rimonabant]
[2]
  side effects: central nervous system side effects

## CC(C)CC(N(C)C)C1(c2ccc(Cl)cc2)CCC1 (stereo not drawn) [sibutramine]
[2]
  side effects: cardiovascular side effects
